Results from US8952024B2, “Herbicidal pyrimidone derivatives” (E I du Pont de Nemours and Company, priority 2009, dated 2015).

Legend:
Format in all cases: in vivo
[1] = test system: ducksalad (Heteranthera limosa); assay: Test B flooded paddy test; details: for Plant response rating, Flood, Ducksalad: 250 g ai/ha, flooded paddy test, visual rating on 0 to 100 scale (0 no effect, 100 complete control) after 13 to 15 days; for Plant response rating, Ducksalad: Flood (flooded paddy test), 13 to 15 days; for Ducksalad plant response rating: Flood, 31 g ai/ha, scale 0 to 100 (0 no effect, 100 complete control)
How it was run: (§1)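 Plants were grown to the 2-leaf stage, then pots were flooded to 3 cm above the soil and compounds were applied directly into the paddy water. That depth was held throughout. After 13 to 15 days in a greenhouse, injury was visually rated against controls on a 0–100 scale.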

[2] = test system: umbrella sedge (Cyperus difformis); assay: Test B flooded paddy test; details: for Plant response rating, Flood, Sedge, Umbrella: 250 g ai/ha, flooded paddy test, visual rating on 0 to 100 scale (0 no effect, 100 complete control) after 13 to 15 days; for Plant response rating, Sedge, Umbrella: Flood (flooded paddy test), 13 to 15 days; for Sedge, Umbrella plant response rating: Flood, 31 g ai/ha, scale 0 to 100 (0 no effect, 100 complete control)
How it was run: as §1

[3] = test system: rice (Oryza sativa); assay: Test B flooded paddy test; details: for Plant response rating, Flood, Rice: 250 g ai/ha, flooded paddy test, visual rating on 0 to 100 scale (0 no effect, 100 complete control) after 13 to 15 days; for Plant response rating, Rice: Flood (flooded paddy test), 13 to 15 days; for Rice plant response rating: Flood, 31 g ai/ha, scale 0 to 100 (0 no effect, 100 complete control)
How it was run: as §1

[4] = test system: barnyardgrass (Echinochloa crus-galli); assay: Test B flooded paddy test; details: for Plant response rating, Flood, Barnyardgrass: 250 g ai/ha, flooded paddy test, visual rating on 0 to 100 scale (0 no effect, 100 complete control) after 13 to 15 days; for Plant response rating, Barnyardgrass: Flood (flooded paddy test), 13 to 15 days; for Barnyardgrass plant response rating: Flood, 31 g ai/ha, scale 0 to 100 (0 no effect, 100 complete control)
How it was run: as §1

[5] = test system: wheat (Triticum aestivum); assay: Test A pre-/postemergence plant response; details: for Wheat plant response rating: visual injury, 0 to 100 scale (0 no effect, 100 complete control), approx. ten days
How it was run: (§2)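 Both pre- and postemergence treatments are applied simultaneously, using chemicals formulated in a non-phytotoxic solvent mixture with surfactant. Postemergence plants are 2–10 cm high with one to two leaves. After approximately ten days in a greenhouse, injury is scored visually from 0 (none) to 100 (complete control) relative to untreated plants.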

[6] = test system: pigweed (Amaranthus retroflexus); assay: Test A pre-/postemergence plant response; details: for Pigweed plant response rating: visual injury, 0 to 100 scale (0 no effect, 100 complete control), approx. ten days
How it was run: as §2

[7] = test system: velvetleaf (Abutilon theophrasti); assay: Test A pre-/postemergence plant response; details: for Velvetleaf plant response rating: visual injury, 0 to 100 scale (0 no effect, 100 complete control), approx. ten days
How it was run: as §2

[8] = test system: giant foxtail (Setaria faberii); assay: Test A pre-/postemergence plant response; details: for Foxtail, Giant plant response rating: visual injury, 0 to 100 scale (0 no effect, 100 complete control), approx. ten days
How it was run: as §2

[9] = test system: morningglory (Ipomoea spp.); assay: Test A pre-/postemergence plant response; details: for Morningglory plant response rating: visual injury, 0 to 100 scale (0 no effect, 100 complete control), approx. ten days
How it was run: as §2

[10] = test system: barnyardgrass (Echinochloa crus-galli); assay: Test A pre-/postemergence plant response; details: for Barnyardgrass plant response rating: visual injury, 0 to 100 scale (0 no effect, 100 complete control), approx. ten days
How it was run: as §2

[11] = test system: corn (Zea mays); assay: Test A pre-/postemergence plant response; details: for Corn plant response rating: visual injury, 0 to 100 scale (0 no effect, 100 complete control), approx. ten days
How it was run: as §2

[12] = test system: large crabgrass (Digitaria sanguinalis); assay: Test A pre-/postemergence plant response; details: for Crabgrass, Large plant response rating: visual injury, 0 to 100 scale (0 no effect, 100 complete control), approx. ten days
How it was run: as §2

[13] = 62 g ai/ha, scale of 0 to 100 where 0 is no effect and 100 is complete control
[14] = 125 g ai/ha, scale 0 to 100, 0 is no effect, 100 is complete control
[15] = Postemergence, 125 g ai/ha, 0 to 100 scale where 0 is no effect and 100 is complete control
[16] = Preemergence, 125 g ai/ha, 0 to 100 scale, 0 = no effect, 100 = complete control
[17] = Preemergence, 500 g ai/ha, 0 to 100 scale, 0 = no effect, 100 = complete control

O=C1CCCC(O)=C1C(=O)c1cnc(-c2cccc(F)c2)n(-c2ccccc2)c1=O [Compound 199]
Plant response rating, Flood, Ducksalad [1]: 90
Plant response rating, Ducksalad [1, 13]: 85
Plant response rating, Ducksalad [1, 14]: 85
Ducksalad plant response rating [1]: 85
Plant response rating, Flood, Sedge, Umbrella [2]: 85
Plant response rating, Sedge, Umbrella [2, 13]: 70
Plant response rating, Sedge, Umbrella [2, 14]: 75
Sedge, Umbrella plant response rating [2]: 60
Plant response rating, Flood, Rice [3]: 0
Plant response rating, Rice [3, 13]: 0
Plant response rating, Rice [3, 14]: 0
Rice plant response rating [3]: 0
Plant response rating, Flood, Barnyardgrass [4]: 25
Plant response rating, Barnyardgrass [4, 13]: 0
Plant response rating, Barnyardgrass [4, 14]: 15
Barnyardgrass plant response rating [4]: 0
Plant response rating, Wheat [5, 15]: 0
Wheat plant response rating ([5]; Postemergence, 500 g ai/ha): 10
Plant response rating, Wheat [5, 16]: 0
Plant response rating, Wheat [5, 17]: 20
Plant response rating, Pigweed [6, 15]: 100
Pigweed plant response rating ([6]; Postemergence, 500 g ai/ha): 100
Plant response rating, Pigweed [6, 16]: 80
Plant response rating, Pigweed [6, 17]: 100
Plant response rating, Velvetleaf [7, 15]: 100
Velvetleaf plant response rating ([7]; Postemergence, 500 g ai/ha): 100
Plant response rating, Velvetleaf [7, 16]: 90
Plant response rating, Velvetleaf [7, 17]: 100
Plant response rating, Foxtail, Giant [8, 15]: 100
Foxtail, Giant plant response rating ([8]; Postemergence, 500 g ai/ha): 100
Plant response rating, Foxtail, Giant [8, 16]: 60
Plant response rating, Foxtail, Giant [8, 17]: 90
Plant response rating, Morningglory [9, 15]: 100
Morningglory plant response rating ([9]; Postemergence, 500 g ai/ha): 100
Plant response rating, Morningglory [9, 16]: 70
Plant response rating, Morningglory [9, 17]: 80
Plant response rating, Barnyardgrass [10, 15]: 90
Barnyardgrass plant response rating ([10]; Postemergence, 500 g ai/ha): 100
Plant response rating, Barnyardgrass [10, 16]: 20
Plant response rating, Barnyardgrass [10, 17]: 90
Plant response rating, Corn [11, 15]: 0
Corn plant response rating ([11]; Postemergence, 500 g ai/ha): 50
Plant response rating, Corn [11, 16]: 20
Plant response rating, Corn [11, 17]: 30
Plant response rating, Crabgrass, Large [12, 15]: 70
Crabgrass, Large plant response rating ([12]; Postemergence, 500 g ai/ha): 100
Plant response rating, Crabgrass, Large [12, 16]: 60
Plant response rating, Crabgrass, Large [12, 17]: 100

CCn1c(Cc2ccccc2)ncc(C(=O)C2=C(O)CCCC2=O)c1=O [Compound 200]
Plant response rating, Flood, Ducksalad [1]: 85
Plant response rating, Ducksalad [1, 13]: 83
Plant response rating, Ducksalad [1, 14]: 85
Ducksalad plant response rating [1]: 38
Plant response rating, Flood, Sedge, Umbrella [2]: 70
Plant response rating, Sedge, Umbrella [2, 13]: 33
Plant response rating, Sedge, Umbrella [2, 14]: 43
Sedge, Umbrella plant response rating [2]: 30
Plant response rating, Flood, Rice [3]: 23
Plant response rating, Rice [3, 13]: 0
Plant response rating, Rice [3, 14]: 10
Rice plant response rating [3]: 0
Plant response rating, Flood, Barnyardgrass [4]: 38
Plant response rating, Barnyardgrass [4, 13]: 0
Plant response rating, Barnyardgrass [4, 14]: 23
Barnyardgrass plant response rating [4]: 0
Plant response rating, Wheat [5, 15]: 0
Wheat plant response rating ([5]; Postemergence, 500 g ai/ha): 0
Plant response rating, Wheat [5, 16]: 0
Plant response rating, Wheat [5, 17]: 0
Plant response rating, Pigweed [6, 15]: 60
Pigweed plant response rating ([6]; Postemergence, 500 g ai/ha): 80
Plant response rating, Pigweed [6, 16]: 0
Plant response rating, Pigweed [6, 17]: 20
Plant response rating, Velvetleaf [7, 15]: 100
Velvetleaf plant response rating ([7]; Postemergence, 500 g ai/ha): 100
Plant response rating, Velvetleaf [7, 16]: 0
Plant response rating, Velvetleaf [7, 17]: 60
Plant response rating, Foxtail, Giant [8, 15]: 0
Foxtail, Giant plant response rating ([8]; Postemergence, 500 g ai/ha): 10
Plant response rating, Foxtail, Giant [8, 16]: 0
Plant response rating, Foxtail, Giant [8, 17]: 0
Plant response rating, Morningglory [9, 15]: 50
Morningglory plant response rating ([9]; Postemergence, 500 g ai/ha): 60
Plant response rating, Morningglory [9, 16]: 0
Plant response rating, Barnyardgrass [10, 15]: 0
Barnyardgrass plant response rating ([10]; Postemergence, 500 g ai/ha): 10
Plant response rating, Barnyardgrass [10, 16]: 0
Plant response rating, Barnyardgrass [10, 17]: 0
Plant response rating, Corn [11, 15]: 0
Corn plant response rating ([11]; Postemergence, 500 g ai/ha): 0
Plant response rating, Corn [11, 16]: 0
Plant response rating, Corn [11, 17]: 0
Plant response rating, Crabgrass, Large [12, 15]: 10
Crabgrass, Large plant response rating ([12]; Postemergence, 500 g ai/ha): 10
Plant response rating, Crabgrass, Large [12, 16]: 0
Plant response rating, Crabgrass, Large [12, 17]: 0
